In PubChem BioAssay AID2060902 (Molecular Pharmacology Branch, DTP, NCI, 2025):

Tested on: 485368-065-R3-J5-PDC spheroids with HUVEC/MSC, viability
Assay: Anticancer human tumor 485368-065-R3-J5-PDC patient-derived pancreatic carcinoma cell line growth inhibition [RAS]
Details: for IC50: curve of first compound; for viability, T/C: stronger effect = lower value
Outline: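 Multi-cell-type spheroids: tumor cells plus HUVEC endothelial cells and mesenchymal stem cells. RAS-pathway inhibitors were combined with targeted agents, each dosed in half-log steps down from clinical Cmax, or from 10 microM when Cmax was unknown.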

[1] = second compound 0.000949 µM, first compound 0.0316 µM
[2] = second compound 0.000949 µM, first compound 0.1 µM
[3] = second compound 0.000949 µM, first compound 0.316 µM
[4] = second compound 0.000949 µM, first compound 1 µM
[5] = second compound 0.000949 µM, first compound 3.16 µM
[6] = second compound 0.000949 µM, first compound 10 µM
[7] = second compound 0.003 µM, first compound 0.0316 µM
[8] = second compound 0.003 µM, first compound 0.1 µM
[9] = second compound 0.003 µM, first compound 0.316 µM
[10] = second compound 0.003 µM, first compound 1 µM
[11] = second compound 0.003 µM, first compound 3.16 µM
[12] = second compound 0.003 µM, first compound 10 µM
[13] = second compound 0.00949 µM, first compound 0.0316 µM
[14] = second compound 0.00949 µM, first compound 0.1 µM
[15] = second compound 0.00949 µM, first compound 0.316 µM
[16] = second compound 0.00949 µM, first compound 1 µM
[17] = second compound 0.00949 µM, first compound 3.16 µM
[18] = second compound 0.00949 µM, first compound 10 µM
[19] = second compound 0.03 µM, first compound 0.0316 µM
[20] = second compound 0.03 µM, first compound 0.1 µM
[21] = second compound 0.03 µM, first compound 0.316 µM
[22] = second compound 0.03 µM, first compound 1 µM
[23] = second compound 0.03 µM, first compound 3.16 µM
[24] = second compound 0.03 µM, first compound 10 µM
[25] = second compound 0.0949 µM, first compound 0.0316 µM
[26] = second compound 0.0949 µM, first compound 0.1 µM
[27] = second compound 0.0949 µM, first compound 0.316 µM
[28] = second compound 0.0949 µM, first compound 1 µM
[29] = second compound 0.0949 µM, first compound 3.16 µM
[30] = second compound 0.0949 µM, first compound 10 µM
[31] = second compound 0.3 µM, first compound 0.0316 µM
[32] = second compound 0.3 µM, first compound 0.1 µM
[33] = second compound 0.3 µM, first compound 0.316 µM
[34] = second compound 0.3 µM, first compound 1 µM
[35] = second compound 0.3 µM, first compound 3.16 µM
[36] = second compound 0.3 µM, first compound 10 µM
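Further: spheroids exposed to agents for seven days before readout.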

For `CC1(O)CCCC1n1c(=O)c(C(F)F)cc2cnc(NC3CCN(S(C)(=O)=O)CC3)nc21` (centres undefined) + CCn1c(-c2cccnc2C(C)OC)c2c3cc(ccc31)N1CCOC(CC(NC(=O)C(C(C)C)N(C)C(=O)C3(F)CCN(C(=O)C#CC(C)(C)N(C)C)CC3)C(=O)N3CCCC(N3)C(=O)OCC(C)(C)C2)C1, the IC50 (second compound 0.000949 µM) was 279 nM, the IC50 (second compound 0.003 µM) was 722 nM and the IC50 (second compound 0.00949 µM) was 580 nM. The IC50 (second compound 0.03 µM) was 254 nM, the IC50 (second compound 0.0949 µM) was 636 nM and the IC50 (second compound 0.3 µM) was 656 nM. It also gave a viability, T/C [1] of 106%, a viability, T/C [2] of 79.2% and a viability, T/C [3] of 44.9%. The viability, T/C [4] was 40.2%, the viability, T/C [5] was 46% and the viability, T/C [6] was 24.5%. It also gave a viability, T/C [7] of 91.4%, a viability, T/C [8] of 82.9% and a viability, T/C [9] of 50.4%. It also gave a viability, T/C [10] of 41.9%, a viability, T/C [11] of 48.5% and a viability, T/C [12] of 21.3%. For the same molecule, the viability, T/C [13] was 92.8%, the viability, T/C [14] was 77.1% and the viability, T/C [15] was 42.9%. For the same molecule, the viability, T/C [16] was 48.2%, the viability, T/C [17] was 44.8% and the viability, T/C [18] was 18%. For the same molecule, the viability, T/C [19] was 97.6%, the viability, T/C [20] was 88.6% and the viability, T/C [21] was 40.8%. It also gave a viability, T/C [22] of 41.2%, a viability, T/C [23] of 49.2% and a viability, T/C [24] of 17.4%. The viability, T/C [25] was 96%, the viability, T/C [26] was 80% and the viability, T/C [27] was 48.5%. The viability, T/C [28] was 41.2%, the viability, T/C [29] was 49.8% and the viability, T/C [30] was 17.4%. The viability, T/C [31] was 105%, the viability, T/C [32] was 86.1% and the viability, T/C [33] was 47%. It also gave a viability, T/C [34] of 44.8%, a viability, T/C [35] of 48.5% and a viability, T/C [36] of 13.1%.
Work on `CCC(CC)c1cc(NC2CCC(N)C2)n2nccc2n1` (centres undefined) + CCn1c(-c2cccnc2C(C)OC)c2c3cc(ccc31)N1CCOC(CC(NC(=O)C(C(C)C)N(C)C(=O)C3(F)CCN(C(=O)C#CC(C)(C)N(C)C)CC3)C(=O)N3CCCC(N3)C(=O)OCC(C)(C)C2)C1 yielded an IC50 (second compound 0.000949 µM) of 1980 nM, an IC50 (second compound 0.003 µM) of 2010 nM and an IC50 (second compound 0.00949 µM) of 1990 nM. For the same molecule, the IC50 (second compound 0.03 µM) was 2030 nM, the IC50 (second compound 0.0949 µM) was 2040 nM and the IC50 (second compound 0.3 µM) was 2000 nM. For the same molecule, the viability, T/C [1] was 104%, the viability, T/C [2] was 97.3% and the viability, T/C [3] was 116%. The viability, T/C [4] was 133%, the viability, T/C [5] was 5.59% and the viability, T/C [6] was 9.62%. It also gave a viability, T/C [7] of 102%, a viability, T/C [8] of 109% and a viability, T/C [9] of 116%. For the same molecule, the viability, T/C [10] was 133%, the viability, T/C [11] was 5.13% and the viability, T/C [12] was 10.4%. The viability, T/C [13] was 95.7%, the viability, T/C [14] was 112% and the viability, T/C [15] was 101%. It also gave a viability, T/C [16] of 138%, a viability, T/C [17] of 4.94% and a viability, T/C [18] of 11.5%. The viability, T/C [19] was 104%, the viability, T/C [20] was 103% and the viability, T/C [21] was 112%. The viability, T/C [22] was 152%, the viability, T/C [23] was 4.96% and the viability, T/C [24] was 11%. For the same molecule, the viability, T/C [25] was 105%, the viability, T/C [26] was 108% and the viability, T/C [27] was 114%. For the same molecule, the viability, T/C [28] was 149%, the viability, T/C [29] was 5.12% and the viability, T/C [30] was 10.1%. For the same molecule, the viability, T/C [31] was 108%, the viability, T/C [32] was 111% and the viability, T/C [33] was 120%. It also gave a viability, T/C [34] of 123%, a viability, T/C [35] of 4.15% and a viability, T/C [36] of 9.84%.
